Tests used:
[1] = system: KMS-12-PE cells expressing BCL-2 WT; assay: CellTiter-Glo cell viability, KMS-12-PE cells overexpressing BCL-2 WT; conditions: read-out: S55746 LC50, KMS-12-PE overexpressing BCL-2 WT, 24 h, mean ± SD, n = 3
Procedure: KMS-12-PE (sourced from DSMZ in 2013; Cat#ACC606) were cultured with HTRPMI with 10% fetal bovine serum. Early passages (P5-P7) after purchase were cryopreserved and thawed for the experiments. Cells beyond passage 15 were not used. Monthly tests for mycoplasma were consistently negative (MycoAlert mycoplasma detection kit; Lonza, GA, USA).
Cell viability 24 h after treatment was then determined using the CellTiter-Glo assay (Promega, Cat#G9241). […] Experiments were performed on three separate occasions; the data is shown as the means ± SD of those three independent experiments.

[2] = system: BCL-2 G101V; assay: Steady-state competition SPR against immobilised BIMBH3 peptide, BCL-2 G101V; assay type: binding, human
Procedure: SPR experiments were performed as previously described. […] The lowest concentrations used in direct binding experiments were 1 nM for BIAcore 4000 and 0.1 nM for BIAcore S200 instruments, concentrations below these were below the sensitivity thresholds for the instruments. […] Direct binding experiments were fitted to a 1:1 binding site kinetic model, fitting on and off rates, in BIAevaluation software. For competition experiments steady-state responses were determined in BIAevaluation software according to the software defaults in affinity evaluation mode averaging responses for 5 sec. […] All affinity measurements were performed in at least two independent experiments using independent protein preparations.

O=C(c1cc(-c2cc3c(cc2C(=O)N2Cc4ccccc4C[C@H]2CN2CCOCC2)OCO3)n2c1CCCC2)N(c1ccccc1)c1ccc(O)cc1 [S55746]
CC50 [1]: 0.32 ± 0.15 µM
S55746 binding weaker than venetoclax ([2]; BCL-2 G101V): > 10 fold
Raw data values in Figure 3g (SPR response) ([2]; S55746 concentration 20, BCL-2 concentration 10 nM, independent experiment 1): 59.4981
Raw data values in Figure 3g (SPR response) ([2]; S55746 concentration 20, BCL-2 concentration 10 nM, independent experiment 2): 173.158
Raw data values in Figure 3g (SPR response) ([2]; S55746 concentration 20, BCL-2 concentration 10 nM, independent experiment 3): 34.4335
Raw data values in Figure 3g (SPR response) ([2]; S55746 concentration 20, BCL-2 concentration 20 nM, independent experiment 1): 71.3826
Raw data values in Figure 3g (SPR response) ([2]; S55746 concentration 20, BCL-2 concentration 20 nM, independent experiment 2): 232.183
Raw data values in Figure 3g (SPR response) ([2]; S55746 concentration 20, BCL-2 concentration 20 nM, independent experiment 3): 41.9552
Raw data values in Figure 3g (SPR response) ([2]; S55746 concentration 20, BCL-2 concentration 30 nM, independent experiment 1): 77.2987
Raw data values in Figure 3g (SPR response) ([2]; S55746 concentration 20, BCL-2 concentration 30 nM, independent experiment 2): 262.629
Raw data values in Figure 3g (SPR response) ([2]; S55746 concentration 20, BCL-2 concentration 30 nM, independent experiment 3): 45.3747
Raw data values in Figure 3g (SPR response) ([2]; S55746 concentration 20, BCL-2 concentration 40 nM, independent experiment 1): 80.4228
Raw data values in Figure 3g (SPR response) ([2]; S55746 concentration 20, BCL-2 concentration 40 nM, independent experiment 2): 280.533
Raw data values in Figure 3g (SPR response) ([2]; S55746 concentration 20, BCL-2 concentration 40 nM, independent experiment 3): 47.3992
Raw data values in Figure 3g (SPR response) ([2]; S55746 concentration 20, BCL-2 concentration 50 nM, independent experiment 1): 83.2844
Raw data values in Figure 3g (SPR response) ([2]; S55746 concentration 20, BCL-2 concentration 50 nM, independent experiment 2): 293.102
Raw data values in Figure 3g (SPR response) ([2]; S55746 concentration 20, BCL-2 concentration 50 nM, independent experiment 3): 48.7371
Raw data values in Figure 3g (SPR response) ([2]; S55746 concentration 20, BCL-2 concentration 60 nM, independent experiment 1): 85.1797
Raw data values in Figure 3g (SPR response) ([2]; S55746 concentration 20, BCL-2 concentration 60 nM, independent experiment 2): 302.908
Raw data values in Figure 3g (SPR response) ([2]; S55746 concentration 20, BCL-2 concentration 60 nM, independent experiment 3): 49.7741
Raw data values in Figure 3g (SPR response) ([2]; S55746 concentration 20, BCL-2 concentration 70 nM, independent experiment 1): 86.4751
Raw data values in Figure 3g (SPR response) ([2]; S55746 concentration 20, BCL-2 concentration 70 nM, independent experiment 2): 309.956
Raw data values in Figure 3g (SPR response) ([2]; S55746 concentration 20, BCL-2 concentration 70 nM, independent experiment 3): 50.4376
Raw data values in Figure 3g (SPR response) ([2]; S55746 concentration 20, BCL-2 concentration 80 nM, independent experiment 1): 87.9511
Raw data values in Figure 3g (SPR response) ([2]; S55746 concentration 20, BCL-2 concentration 80 nM, independent experiment 2): 316.608
Raw data values in Figure 3g (SPR response) ([2]; S55746 concentration 20, BCL-2 concentration 80 nM, independent experiment 3): 51.0592
Raw data values in Figure 3g (SPR response) ([2]; S55746 concentration 20, BCL-2 concentration 100 nM, independent experiment 1): 89.5861
Raw data values in Figure 3g (SPR response) ([2]; S55746 concentration 20, BCL-2 concentration 100 nM, independent experiment 2): 324.599
Raw data values in Figure 3g (SPR response) ([2]; S55746 concentration 20, BCL-2 concentration 100 nM, independent experiment 3): 51.7173
Raw data values in Figure 3g (SPR response) ([2]; S55746 concentration 20, BCL-2 concentration 150 nM, independent experiment 1): 91.8559
Raw data values in Figure 3g (SPR response) ([2]; S55746 concentration 20, BCL-2 concentration 150 nM, independent experiment 2): 337.351
Raw data values in Figure 3g (SPR response) ([2]; S55746 concentration 20, BCL-2 concentration 150 nM, independent experiment 3): 52.8108
Raw data values in Figure 3g (SPR response) ([2]; S55746 concentration 20, BCL-2 concentration 200 nM, independent experiment 1): 93.1192
Raw data values in Figure 3g (SPR response) ([2]; S55746 concentration 20, BCL-2 concentration 250 nM, independent experiment 2): 349.701
Raw data values in Figure 3g (SPR response) ([2]; S55746 concentration 20, BCL-2 concentration 250 nM, independent experiment 3): 53.5404
Raw data values in Figure 3g (SPR response) ([2]; S55746 concentration 40, BCL-2 concentration 10 nM, independent experiment 1): 53.0775
Raw data values in Figure 3g (SPR response) ([2]; S55746 concentration 40, BCL-2 concentration 10 nM, independent experiment 2): 142.314
Raw data values in Figure 3g (SPR response) ([2]; S55746 concentration 40, BCL-2 concentration 10 nM, independent experiment 3): 29.9924
Raw data values in Figure 3g (SPR response) ([2]; S55746 concentration 40, BCL-2 concentration 20 nM, independent experiment 1): 66.1797
Raw data values in Figure 3g (SPR response) ([2]; S55746 concentration 40, BCL-2 concentration 20 nM, independent experiment 2): 204.771
Raw data values in Figure 3g (SPR response) ([2]; S55746 concentration 40, BCL-2 concentration 20 nM, independent experiment 3): 38.5613
Raw data values in Figure 3g (SPR response) ([2]; S55746 concentration 40, BCL-2 concentration 30 nM, independent experiment 1): 73.4709
Raw data values in Figure 3g (SPR response) ([2]; S55746 concentration 40, BCL-2 concentration 30 nM, independent experiment 2): 240.258
Raw data values in Figure 3g (SPR response) ([2]; S55746 concentration 40, BCL-2 concentration 30 nM, independent experiment 3): 42.9042
Raw data values in Figure 3g (SPR response) ([2]; S55746 concentration 40, BCL-2 concentration 40 nM, independent experiment 1): 77.7102
Raw data values in Figure 3g (SPR response) ([2]; S55746 concentration 40, BCL-2 concentration 40 nM, independent experiment 2): 263.387
Raw data values in Figure 3g (SPR response) ([2]; S55746 concentration 40, BCL-2 concentration 40 nM, independent experiment 3): 45.6376
Raw data values in Figure 3g (SPR response) ([2]; S55746 concentration 40, BCL-2 concentration 50 nM, independent experiment 1): 81.3114
Raw data values in Figure 3g (SPR response) ([2]; S55746 concentration 40, BCL-2 concentration 50 nM, independent experiment 2): 278.636
Raw data values in Figure 3g (SPR response) ([2]; S55746 concentration 40, BCL-2 concentration 50 nM, independent experiment 3): 47.2724
Raw data values in Figure 3g (SPR response) ([2]; S55746 concentration 40, BCL-2 concentration 60 nM, independent experiment 1): 83.6106

Source: paper PMC6547681 (Nature Communications, 2019)
